Patent publication US20230218544A1, “TREATMENT METHODS AND FORMULATIONS” (Curtin University, priority 2020, published 2023)
“Also recorded” adds a separate entry of the source.

Experiments:
HEI-OC1 cells [1] = experiment: Cisplatin cytotoxicity in inner ear sensory cells; format: cell-based, mouse; conditions: concentration used in subsequent experiments to ensure IC 50; 24 hours; read-out: IC 50 on cell viability
Description: House Ear Institute-Organ of Corti 1 (HEI-OC1) cells provided by Y J. Seo (Yonsei University, wonju, Korea) and F. Kalinec, (House Ear Institute, (Los Angeles, Calif., USA) were cultured in high-glucose Dulbecco's modified Eagle's medium (DMEM; Lonza, USA) supplemented with 10% Fetal bovine serum (FBS; Gibco BRL, USA) and 50 U/ml gamma-interferon (PEPRO TECH, INC. USA) without any antibiotics in a permissive condition (33° C., 10% CO2). For the non-permissive condition, cultured cells were cultured in the permissive condition for a certain period (Kalinec G, Thein P, Park C, Kalinec F. HEI-OC1 cells as a model for investigating drug cytotoxicity. […] Growth curves were performed to identify the growth patterns of cells in each condition. Cells cultured at 33° C., in a 10% CO2 atmosphere condition were recorded on day 0 after cell counting before seeding. Cells were recovered stripped daily from the cell dish and enumerated. This was done then, cell counted, confirmed for up to 14 days. Following the shift, cells were enumerated daily for 14 days. As explained above, HEI-OC1 cells were cultured in permissive conditions (33° C., 10% CO2) until day 5 and then transferred to the non-permissive condition (39° C., 5% CO2).
High-glucose DMEM supplemented with 0.5% FBS was used. […]

HEI-OC1 cells [2] = experiment: Cell viability with cisplatin and probucol (oto-protection); format: cell-based, mouse
Description: House Ear Institute-Organ of Corti 1 (HEI-OC1) cells provided by Y J. Seo (Yonsei University, wonju, Korea) and F. Kalinec, (House Ear Institute, (Los Angeles, Calif., USA) were cultured in high-glucose Dulbecco's modified Eagle's medium (DMEM; Lonza, USA) supplemented with 10% Fetal bovine serum (FBS; Gibco BRL, USA) and 50 U/ml gamma-interferon (PEPRO TECH, INC. USA) without any antibiotics in a permissive condition (33° C., 10% CO2). For the non-permissive condition, cultured cells were cultured in the permissive condition for a certain period (Kalinec G, Thein P, Park C, Kalinec F. HEI-OC1 cells as a model for investigating drug cytotoxicity. Hearing Res. 2016; 335:105-117. doi:10.1016/j.heares.2016.02.019). Growth curves were performed to identify the growth patterns of cells in each condition. Cells cultured at 33° C., in a 10% CO2 atmosphere condition were recorded on day 0 after cell counting before seeding. Cells were recovered stripped daily from the cell dish and enumerated. This was done then, cell counted, confirmed for up to 14 days. Following the shift, cells were enumerated daily for 14 days. As explained above, HEI-OC1 cells were cultured in permissive conditions (33° C., 10% CO2) until day 5 and then transferred to the non-permissive condition (39° C., 5% CO2).
Cisplatin was from Sigma Chemical Co. (St. Louis, Mo., USA). […]

[3] = tested on: guinea pig model of ototoxicity; experiment: Experimental Example 4: CAP thresholds in ototoxicity animal model with kanamycin and furosemide; format: in vivo, guinea pigs (Cavia porcellus); conditions: for difference of CAP between ototoxicity and ototoxicity with probucol sides: day 14 post-treatment
Description: Experiments were performed on 9 adult guinea pigs (Cavia porcellus) of either sex with body weights between 250 and 350 g. All experimental procedures were approved by The University of Curtin Animal Ethics Committee.
For all experiments, each animal first underwent a recovery surgery at day ‘zero’ to inject.
For the recovery surgery, each animal was given a 0.05 ml subcutaneous injection of Temgesic (Buprenorpherine; Reckitt Benckiser, Auckland NZ) and 0.1 ml of Atrosine (0.6 mg/ml atropine sulphate; Apex Laboratories, NSW, Australia) before being anesthetized using isoflurane (2-5%). The temperature was maintained using an electric heating pad, and lignocaine was used as a local anesthetic. While using aseptic techniques, animals were mounted on a custom ear-bar setup, and the left bulla surgically opened via a dorsal approach providing a view of the left round window, using aseptic techniques. Before the drug administrations, the AgCl ball-electrode (reference in the neck) was placed on the round window for recording compound action potential (CAP) responses (Brown D J, Chihara Y, Curthoys I S, Wang Y, Bos M. Changes in cochlear function during acute endolymphatic hydrops development in guinea pigs. Hearing Res. 2013; 296 (J. Neurophysiol. 101 2009):96-106. doi:10.1016/j.heares.2012.12.004; Brown D J, Pastras C J, Curthoys I S, Southwell C S, Roon L V. Endolymph movement visualized with light sheet fluorescence microscopy in an acute hydrops model. Hearing Res. 2016; 339 (PloS one 7 2012):112-124. doi:10.1016/j.heares.2016.06.007; and Brown D J, Sokolic L, Fung A, Pastras C J. Response of the Inner Ear to Lipopolysaccharide Introduced Directly into Scala Media. Hearing Res. 2018; 370 (Otol Neurotol 32 2011):105-112. doi:10.1016/j.heares.2018.10.007).
The bulla opening was resealed with dental cement before the overlying skin was sutured. The animal was then removed from isoflurane, and allowed to recover slowly under close observation. During recovery, the animal was given a subsequent 0.05 ml i.p. dose of Temgesic, along with an oral delivery of 1 ml Ibuprofen (40 mg/ml; Reckitt Benckiser Pty Ltd, Australia). Animals were then allowed to recover for 14 days (±3) days. For following CAP threshold measurements after 14 days, the bulla was re-opened with same procedures. Thereafter, animals were re-anaesthetized and mounted on the ear-bars, for a repeated measure of CAP thresholds described previously. Animals were then deeply anaesthetized, and euthanized via cardiac fixation for temporal bones harvesting.
The standard deviation of CAP thresholds was measured at day 0.

[4] = tested on: guinea pig model of ototoxicity; experiment: Experimental Example 3: round window CAP thresholds after kanamycin and furosemide ototoxicity; format: in vivo, guinea pigs (Cavia porcellus)
From the text: The animal was then removed from isoflurane, and allowed to recover slowly under close observation. […] Animals were then deeply anaesthetized, and euthanized via cardiac fixation for temporal bones harvesting.

[5] = tested on: spiral ganglion neurons (SGNs); experiment: Light sheet microscopy quantification of spiral ganglion neuron (SGN) density in cochlea; format: in vivo, guinea pig
Description: Harvested temporal bones were immersed in 4% para-formaldehyde overnight at 4° C., before being decalcified for 14-18 days in 10% EDTA. They were then rinsed with Sorenson's buffer, dehydrated in a series of 50, 75, 90 and 100% ethanol (8-12 h each step), and immersed in Spalteholz solution for 24 h, to render the sample optically transparent. Samples were then imaged using a custom light-sheet fluorescence microscope (LSFM), based on the setup described by Santi et al. (2009) (Santi P A. Light Sheet Fluorescence Microscopy. J Histochem Cytochem. 2010; 59(2):129-138. doi:10.1369/0022155410394857), where ‘virtual slices’ of the inner ear were imaged at […] steps in the axial plane, detailed in Brown et al. (2016) (Brown D J, Pastras C J, Curthoys I S, Southwell C S, Roon L V. Endolymph movement visualized with light sheet fluorescence microscopy in an acute hydrops model. Hearing Res. 2016; 339 (PloS one 7 2012):112-124. doi:10.1016/j.heares.2016.06.007), providing a ‘z-stack’ of between 300 and 1000 virtual slice images. LSFM images were analyzed by a blinded investigator, for later comparison to the functional data and treatment. LSFM z-stacks were analyzed using ImageJ software, with 3D volumes segmented for volume analysis using the Segmentation3D plugin. TIFF files collected from the light sheet microscope were reconstructed into representative 3D images. […]

SMILES | IC50 (HEI-OC1 cells [1]) [µM] | cell survival compared with control (HEI-OC1 cells [2]; probucol 20 μM and 50 μM with cisplatin, 24 h) | cellular mitogenesis compared with control (HEI-OC1 cells [2]; probucol 100 μM, attributed to high concentration of vehicle DMSO) | difference of CAP between ototoxicity and ototoxicity with probucol sides ([3]; 6 kHz, probucol injected into bulla around RWM) [dB] | difference of CAP between ototoxicity and ototoxicity with probucol sides ([3]; 10 kHz) [dB] | difference of CAP between ototoxicity and ototoxicity with probucol sides ([3]; 14 kHz) [dB] | hearing protection in the ototoxicity guinea pig model ([3]; guinea pig, in vivo) | thresholds of hearing (CAP) versus control side ([3]; significant only at 6 and 10 kHz) | mean difference between left and right CAP thresholds ([4]; 2 kHz, insignificant) [dB] | hearing loss (CAP thresholds compared to baseline), probucol-treated cochleae ([4]; about 100 μL probucol-gel on round window, after kanamycin and furosemide, significant at all frequencies except 6 and 10 kHz) | average CAP threshold compared to non-probucol treated cochlea ([4]; at 6 kHz and 10 kHz) | density of SGNs in the basal turn versus ototoxicity alone group ([5]; basal turn of cochlea, significant) | effect on hair cell damages by ototoxicity drugs ([5]; guinea pig, in vivo)
N.N.[Cl][Pt][Cl] [cisplatin] | ~20 | – | – | – | – | – | – | – | – | – | – | – | –
CC(C)(Sc1cc(C(C)(C)C)c(O)c(C(C)(C)C)c1)Sc1cc(C(C)(C)C)c(O)c(C(C)(C)C)c1 [probucol, 2,6-ditert-butyl-4-[2-(3,5-ditert-butyl-4-hydroxyphenyl)sulfanylpropan-2-ylsulfanyl]phenol] | – | promoted the cell survival | significant decrease in cellular mitogenesis | 23.4±9.49 | 21.89 ± 7.72 | 16.56±4.15 | hearing protection effect | better thresholds of hearing | 3 | 11-40 dB | significantly lower | significantly larger density; also recorded: kept not to be injured | protective effect
